pIC50: −log10 of the molar value. Where two headings read alike, the source gives them in different places.
Legend:
[1] = Solubility observed in experimental testing
[2] = design: method as in vendor (SPECS); settings: reported by the vendor ref vendor (SPECS); cited from earlier work
[3] = biological target: T1, human RORγ hybrids of both isoforms 1 and 2 (RORγt) (Homo sapiens, UniProt P51449); experiment: Human RAR-related Orphan Receptor Gamma Reporter Assay System (Indigo Biosciences); type: cell-based
T1 sequence (P51449 259-518): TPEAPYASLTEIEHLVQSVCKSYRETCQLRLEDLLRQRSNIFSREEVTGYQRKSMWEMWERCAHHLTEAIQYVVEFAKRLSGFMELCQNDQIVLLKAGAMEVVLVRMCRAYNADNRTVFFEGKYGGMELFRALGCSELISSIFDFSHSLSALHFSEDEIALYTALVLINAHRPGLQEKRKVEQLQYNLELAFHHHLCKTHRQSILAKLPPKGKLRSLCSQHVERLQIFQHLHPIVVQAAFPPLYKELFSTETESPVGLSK
Method: The activity of the 28 selected molecules was determined at 5 μM concentration using the Human RAR-related Orphan Receptor Gamma Reporter Assay System in a 96-well format (Indigo Biosciences, State College, PA, USA). The assay utilizes human reporter cells designed to express high levels of human RORγ hybrids of both isoforms 1 and 2 and is capable of quantifying inverse agonism and agonism. […] Concentrations of the tested molecules varied from 10 µM to 8 nM, using 1/3-fold decrements within the range of 6 µM to 8 nM. Otherwise, the kit protocol was followed, and the analysis was done similarly as in a prior study.

[4] = RORγ reporter assay, concentrations 10 µM to 8 nM, read-out: IC50

COc1cc(C(=O)N2CCN(CCN3C(=O)c4cccc5cccc(c45)C3=O)CC2)cc(OC)c1OC [Compound 2]
solubility [1]: non-soluble | logP [2]: 1.69

Clc1ccccc1COc1cccc(/C=N/Nc2nc(N3CCOCC3)nc(N3CCOCC3)n2)c1 [Compound 9]
pIC50 [3, 4]: 5.77

COc1ccc(-c2cc(C(F)(F)F)n3ncc(C(=O)N4CCN(C(c5ccccc5)c5ccccc5)CC4)c3n2)cc1 [Compound 10]
pIC50 [3, 4]: 5.01

COc1cc(C2C(C(=O)OC3CCCCC3)=C(C)NC3=C2C(=O)CC(c2ccc(OC)c(OC)c2)C3)ccc1O (stereo not shown) [Compound 13]
pIC50 [3, 4]: 5.59

COc1ccc(C2CC(=O)C3=C(C2)NC(C)=C(C(=O)OC2CCCCC2)C3c2cccc(O)c2)cc1OC (stereo not shown) [Compound 14]
pIC50 [3, 4]: 5.64

O=C(O)c1ccc(CN2C(=O)/C(=C/c3cn(Cc4ccc([N+](=O)[O-])cc4)c4ccccc34)S/C2=N/c2ccccc2)cc1 [Compound 15]
pIC50 [3, 4]: 5.14

O=C(COC(=O)c1ccc(N2C(=O)C3C4c5ccccc5C(c5ccccc54)C3C2=O)cc1)c1cccc([N+](=O)[O-])c1 (stereo not shown) [Compound 17]
solubility [1]: non-soluble | logP [2]: 2.93

COc1ccc(-c2nc3ccccc3c(C(=O)Nc3ccc(S(=O)(=O)Nc4cc(C)on4)cc3)c2C)cc1 [Compound 19]
pIC50 [3, 4]: 5.96

COc1ccc(Cn2c(-c3ccc(S(=O)(=O)N4CCOCC4)cc3)cs/c2=N\c2ccccc2OC)cc1 [Compound 21]
pIC50 [3, 4]: 4.97

COc1cc(C2C(C#N)=C(N)N(Nc3ccccc3)C3=C2C(=O)CC(C)(C)C3)ccc1OCc1cccc(F)c1 (stereo not shown) [Compound 25]
pIC50 [3]: 5.62

COc1cc(C2C(C#N)=C(N)N(Nc3ccccc3)C3=C2C(=O)CC(C)(C)C3)ccc1OCc1ccccc1 (stereo not shown) [Compound 26]
pIC50 [3]: 5.49
